Data: PubChem BioAssay (NCI)
Values joined by “and” are separate entries in the source; they are usually repeats but may differ in a detail not shown here. Identical values can stand only once.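 In this assay, cells in 96-well plates receive the compound at five concentrations for 48 hours. Endpoints are linearly interpolated between the surrounding concentrations. GI50 = concentration required for 50% inhibition of growth. TGI: concentration producing complete growth inhibition.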

Tests used:
Experiment in all cases: NCI anticancer screen, dose series, 48 h
[1] = system: RXF 393 renal
[2] = system: CCRF-CEM leukemia
[3] = system: NCI-H522 lung
[4] = system: MDA-MB-435
[5] = system: HCC-2998 colon
[6] = system: NCI-H226 lung
[7] = system: CAKI-1 renal
[8] = system: HL-60(TB) leukemia

Compound	GI50 [1]	TGI [1]	GI50 [2]	TGI [2]	GI50 [3]	TGI [3]	GI50 [4]	TGI [4]	GI50 [5]	TGI [5]	GI50 [6] [µM]	TGI [6] [µM]	GI50 [7]	TGI [7]	GI50 [8] [µM]	TGI [8] [µM]
COc1ccc(-c2ccc3ncc4c(c3c2)n(-c2ccc(N3CCNCC3)c(C(F)(F)F)c2)c(=O)n4C)cn1	< 0.01 µM and 0.0018 µM	< 0.0323 µM and 0.00977 µM	< 0.01 µM and 0.00664 µM	0.282 µM and 0.144 µM	< 0.01 µM and 0.00669 µM	1.07 µM and 0.379 µM	< 0.01 µM and 0.00272 µM	0.0732 µM and 0.106 µM	< 0.01 µM and 0.00675 µM	1.34 µM and 0.269 µM	0.00858	0.116	0.0179 µM and 0.0119 µM	0.884 µM and 0.118 µM	0.0143	0.113
Nc1ccc(-c2ccc(Nc3cc(S(=O)(=O)O)c(N)c4c3C(=O)c3ccccc3C4=O)cc2)c(S(=O)(=O)O)c1		> 100 µM		> 100 µM		> 100 µM		> 100 µM		> 100 µM		> 100		> 100 µM		> 100
CSC1=Nc2c(c(C)c(-c3ccccc3)n2CCCCl)C2=NC(=O)CN12	11.3 µM	29.8 µM	5.08 µM	> 100 µM	3.86 µM	19.2 µM	2.03 µM	4.65 µM	4.52 µM	19.7 µM	11	29.8	4.6 µM	28.1 µM	3.41	> 100
Cc1coc2c1CC1OC1(C)CCC1OC1(C)C2 (stereo not given)				> 100 µM		> 100 µM		> 100 µM		> 100 µM		> 100		> 100 µM		> 100
C=CC(=O)NCCOc1cccc(Nc2cc(NCCCNC(=O)C3CCC3)c(Br)cn2)c1	0.283 µM	0.639 µM	1.04 µM	> 25 µM	0.819 µM	4.96 µM	2.49 µM	6.03 µM	2.49 µM	7.59 µM	0.613	> 25	0.434 µM	1.75 µM	0.989	> 25
C/C(=C1/N=C(c2ccccc2)OC1=O)c1ccc(C)cc1		> 100 µM		> 100 µM		> 100 µM		> 100 µM		> 100 µM		> 100		> 100 µM		> 100
Fc1c[c-]c(-c2ccccn2)c(F)c1.[CH3-].[Pt+2].c1ccc([PH+](c2ccccc2)c2ccccn2)cc1	1.32 µM	2.76 µM	1.38 µM	> 100 µM	1.94 µM	8.18 µM	1.74 µM	3.45 µM	1.83 µM	3.53 µM	1.73	3.8	1.23 µM	2.53 µM	2.05	7.28
CCCCCCCCCCCCOC1C(CNCC2OC3OC(C)(C)OC3C2NC(=O)Nc2ccc(C(F)(F)F)cc2)OC2OC(C)(C)OC21 (stereo not given)	3.37 µM	8.99 µM	2.45 µM	12.5 µM	3.96 µM	9.21 µM	5.27 µM	13.4 µM	3.05 µM	5.88 µM	7.59	16.4	7.41 µM	15.1 µM	0.0134	0.364
COc1ccc2c(O)c(/C=C3\N=Nc4ncccc43)oc2c1C[C@H]1CCNC[C@H]1F	0.183 µM	0.55 µM	0.227 µM	0.876 µM	0.206 µM	2.23 µM	0.467 µM	10.6 µM	2.38 µM	11.5 µM	0.16	5.29	0.161 µM	11.3 µM	0.246	0.625
COc1cc(/C=C/C(=O)NC[C@]2(O)CCC3C4CCc5cc(O)ccc5C4CCC32C)ccc1O (stereo not given in full)	6.42 µM	85.5 µM	3.18 µM	86.1 µM	6.89 µM	51.7 µM	4.46 µM	37.5 µM	8.62 µM	32.4 µM	35.1	> 100	46.9 µM	> 100 µM	3.34	90.7
COc1cccc2c1nc1cccc(OC)c1[n+]2[O-]	4.36 µM	22.1 µM	2.35 µM	13.3 µM	3.98 µM	18.1 µM	16.8 µM	44.8 µM	1.5 µM	6.98 µM	10.6	23.8	2.44 µM	10.4 µM	2.52	5.94
COc1cc2cn3c4ccc(O)cc4nc(N)c3c2cc1OC	0.283 µM	2.5 µM	0.181 µM	7.58 µM	0.0713 µM	1.91 µM	0.0195 µM	12.8 µM	0.606 µM	7.29 µM	0.201	3.54	0.299 µM	3.22 µM	0.887	2.41
COc1cc(-c2nc3ccccc3[nH]2)ccc1OCC(=O)N=Nc1c(O)[nH]c2ccc(Cl)cc12	1.8 µM	3.48 µM	0.5 µM	3.56 µM	1.48 µM	3.48 µM	1.43 µM	2.76 µM	1.32 µM	2.8 µM	1.83	3.74	1.81 µM	3.55 µM	1.93	4.42
Cc1cc(O)c(C2=NN(c3ccc(S(N)(=O)=O)cc3)C(c3ccccc3O)C2)cc1Cl (stereo not given)	2.05 µM	5.78 µM	3.12 µM	> 24.7 µM	1.91 µM	4.72 µM	2.01 µM	4.32 µM	2 µM	3.81 µM	1.83	6.05	1.67 µM	4.12 µM	2.49	6.14
CC(C)(C)CC(C)(C)N(CSc1ccc(Cl)cc1)CSc1ccc(Cl)cc1	1.87 µM	7.06 µM	0.366 µM	3.38 µM	1.65 µM	3.08 µM	1.45 µM	4.05 µM	4.62 µM	16.4 µM	0.836	2.67	1.78 µM	4.55 µM	1.75	3.96
Clc1nc(Cl)c2ncn(C/C=C/Cn3cnc4c(Cl)nc(Cl)nc43)c2n1	2.3 µM	6.42 µM	10.7 µM	25.3 µM	6.75 µM	22.7 µM	19.8 µM	39.4 µM	16 µM	31.4 µM	22.3	42.9	13.9 µM	28.1 µM	17.3	> 100
CCN1CCC2(CC1)NC(=O)c1c(c3ccc(Cl)c(Cl)c3n1C)C2C#N (stereo not given)	1.24 µM	4.13 µM	3 µM	13.1 µM	5.81 µM	21.7 µM	1.93 µM	3.77 µM	1.73 µM	3.26 µM	5.67	23.7	2.25 µM	8.23 µM	2.01	6.02
Cc1c2cnccc2c(C)c2c1c1cc(C(=O)O)ccc1n2C	0.666 µM	2.33 µM	1.06 µM	6.6 µM	0.943 µM	3.9 µM	1.33 µM	3.4 µM	1.25 µM	4.61 µM	0.454	2.47	0.616 µM	8.34 µM	2.09	6.64
O=C(Nc1ccc(Cl)cc1F)c1cc(F)ccc1O	0.864 µM	4.28 µM	3.16 µM	> 100 µM	0.379 µM	9.26 µM	0.626 µM	5.51 µM	2.64 µM	8.1 µM	1.02	5.49	0.588 µM	4.54 µM	0.622	3.45
COc1cccc2c1C(=O)c1c(O)c3c(c(O)c1C2=O)C[C@@](O)(C(=O)CO)C[C@@H]3OC1CC(OC(C)=O)C(OC(C)=O)C(C)O1 (stereo not given in full)	1.41 µM	3.72 µM	0.0435 µM	0.764 µM	0.578 µM	3.36 µM	1.27 µM	4.63 µM	1.28 µM	3.19 µM	0.193	1.16	0.18 µM	1.44 µM	0.235	
Cc1cc(C(=O)N[C@@H](CCC(=O)O)C(=O)O)sc1CC[C@@H]1CNc2nc(N)[nH]c(=O)c2C1	< 0.0153 µM	> 100 µM	0.0316 µM	> 100 µM	0.0322 µM	> 100 µM	0.0296 µM	> 100 µM	0.0751 µM	> 100 µM	< 0.0245	> 100	< 0.01 µM	> 100 µM	< 0.0124	> 100
CN1C(=O)N(C)C2C1NN=c1s/c(=C\c3c[nH]c4ccccc34)c(=O)n12 (stereo not given)			0.0337 µM	> 100 µM	0.0331 µM	18.9 µM	0.0162 µM	0.0482 µM	0.0352 µM	> 100 µM	0.143	> 100	0.0309 µM	> 100 µM	0.0305	0.858
CC(N)(Cc1c[nH]c2ccccc12)C(=O)O (stereo not given)	> 2500 µM	> 2500 µM	> 2500 µM	> 2500 µM	> 2500 µM	> 2500 µM	> 2500 µM	> 2500 µM	> 2500 µM	> 2500 µM	> 2500	> 2500	> 2500 µM	> 2500 µM	> 2500	> 2500
Cc1cc(Nc2cc(CN3CCOCC3)c3nc(C)c(Cc4ccc(Cl)cc4F)n3n2)n[nH]1	0.545 µM	2.13 µM	0.59 µM	3.94 µM	0.566 µM	2.02 µM	0.694 µM	19.6 µM	1.49 µM	3.13 µM	0.561	4.07	1.74 µM	4.67 µM	0.768	2.86
COc1ccc(S(=O)(=O)NC2=NCCN2C(=S)SN2CCn3c2nsc3=S)cc1OC	3.1 µM	13 µM	11.3 µM	30.9 µM	13 µM	38.8 µM	19.8 µM	44.1 µM	24.7 µM	44.1 µM	26.5	81.5	16.5 µM	61.8 µM	> 100	> 100
COc1cc(-c2cc(-c3nc4cc(Cl)c(Cl)cc4[nH]3)[nH]n2)cc(OC)c1OC	3.17 µM	13.5 µM	2.35 µM	6.75 µM	2.02 µM	5.66 µM	3.78 µM	14.6 µM	4.47 µM	15 µM	2.29	8.8	3.81 µM	12.9 µM	3.34	11.6
CC(C)(C)OC(=O)N1CC(Cn2cc(C(F)(F)F)c3c(Cl)ncnc32)C1	1.43 µM	3.59 µM	3.05 µM	9.19 µM	13.3 µM	28.4 µM	1.72 µM	3.14 µM	1.79 µM	3.34 µM	18.9	41.9			2.37	5.82
O=C1c2ccc3c4c(ccc(c24)C(=O)N1CCCNCc1ccccc1)C(=O)N(CCCNCc1ccccc1)C3=O	0.135 µM	0.27 µM	0.17 µM	4.73 µM	0.142 µM	0.303 µM	0.18 µM	0.356 µM	0.154 µM	0.303 µM	0.694	2.25	0.21 µM	0.588 µM	0.163	0.412
COc1cc(/C=C2\CCCC3C2=Nc2ccccc2NC3c2cc(OC)c(OC)c(OC)c2)cc(OC)c1OC (stereo not given)	2.08 µM	5.31 µM	0.591 µM	3.6 µM	1.9 µM	4.92 µM	0.425 µM	4.4 µM	2.3 µM	4.81 µM	1.93	4.19	3.31 µM	> 100 µM	2.44	4.97
COc1ccc(C2=CC(c3ccc(Oc4ccnc5cc(Cl)ccc45)c(OC)c3)c3c(nc(OC)[nH]c3=O)N2)cc1 (stereo not given)	21.8 µM	> 100 µM	3.25 µM	> 100 µM	3.18 µM	47.2 µM	5.06 µM	> 100 µM	> 100 µM	> 100 µM	16.4	> 100	15.5 µM	> 100 µM	3.51	45.5
